One assay relates to MDA-MB231-TaxR. Description: Sulforhodamine B (SRB) assay. It counts as cell-based. The conditions noted are these: Homo sapiens, MDA-MB231-TaxR paclitaxel-resistant breast cancer cells, 48 h. The source says: We had initially determined that quinolone chalcones were promising anti-proliferative through a first round screening and identified CTR-17 and CTR-20 as favorable structures for anticancer activity. […] We carried out a comparative SAR study to determine if we could further optimize the quinolone chalcone to maximize efficacy. The Sulforhodamine B (SRB) assay was used to measure the anti-proliferative/cell killing activities of CTRs, for which several different cell lines were use: the cervical cancer HeLa, the breast cancer cell lines MDA-MB231, MDA-MB468, MDA-MB231TaxR (an induced paclitaxel-resistant sub-cell line of the MDA-MB231[9]) and MCF7. In addition, a subset was tested against the melanoma cell lines MZ-MEL-3.1, Mel-SOE, UKRV-Mel-38, UKRV-Mel-17 and MDA-MB-435 (Table 1, Supplemental Table S1).
(§1) The SRB assay was used to assess drug-induced cytotoxicity and cell proliferation as previously described[2],[33],[34] with a few modifications. Briefly, cells were plated 10,000 to 25,000 cells/cm^2 in 96-well plates (100 µl medium) and allowed to adhere overnight. The cell counts were different for each cell line to ensure optimal cell growth for the duration of the assay. Eight different concentrations of compound solutions using 2–4 times serial dilutions (100 µl). Cells were then incubated for an additional 48 h and then fixed with 100 µl ice-cold 10% (w/v) trichloroacetic acid (TCA) (without removing the cell medium, final concentration, 3.3% of TCA) and stained with 0.4% SRB (w/v) in 1% acetic acid (v/v). The relative growth rate (%) was calculated for each of the compound concentrations according to the following formula: 100 * (T − T0)/(C − T0), in which T is the optical density (OD) after exposure to a certain concentration of the compound after 48 h, T0 is the OD at the start of drug exposure (time zero) and C is the control growth. The GI50 for each compound was obtained from a non-linear sigmoidal dose–response (variable slope) curve fitted by GraphPad Prism v.4.03 software.

For a further assay, the system named is HeLa cells. Description: Cell cycle analysis by flow cytometry. The assay is classed as cell-based, human. Particulars: 3× GI50, 12 or 24 h, HeLa and UKRV-Mel-38 (Supplemental Fig. S11). The method, then: Figure 5 CTR-21 arrests cells at G2/M, eventually leading to cell death by apoptosis. (a) Effects of CTR-21 on the cell cycle progression of HeLa and E112 cells. […] (b) Cell morphology of CTR-21 arrested cells. HeLa cells were treated with 30 nM of CTR-21 for 12 h, fixed with methanol and immunostained with α-tubulin or γ-tubulin, and counterstained with DAPI. Bar = […]. (c) CTR-21 promotes PARP cleavage. […] GAPDH was used as a loading control.
Cell cycle progression was determined using flow cytometry. UKRV-Mel-38 and HeLa cells were plated onto 10 cm plate at a density of 0.5 million and treated them with or without the compounds the following day for 12, 24 or 48 h. Cells were then harvested and centrifuged at 1000 rpm for 5 min, washed in PBS and then fixed with ice-cold ethanol (70%) for at least 24 h at − 20 °C. The cells were centrifuged, re-suspended in PBS solution, followed by centrifugation. The cell pellet was then stained with 100 μg/mL propidium iodide (PI) and 100 μg/mL RNase A in distilled water for at least 1 h. DNA content was measured using a Beckmann Coulter Cytomics FC500 (Beckman Coulter, Fullerton, CA), and the proportion of cell populations in G0/G1, S, and G2/M phases of cell cycle was calculated on the basis of DNA distribution histograms using CXP software (Beckman Coulter, Fullerton, CA).
On the technique in general: In flow cytometry, cells or beads pass a laser one at a time.

Assay [1] deals with cancer cell lines (breast cancer, melanoma, cervical cancer). Briefly: SRB assay, average GI50 over cancer cell lines. It counts as cell-based. The method, then: as §1
The next assay deals with MDA-MB435. Description: Sulforhodamine B (SRB) assay. It counts as cell-based. Particulars: Homo sapiens, MDA-MB-435, MDA-MB435 cells, 48 h. The method, then: (§2) The human MDA-MB-231, MCF7, MDA-MB-468, RPMI-8226 and HeLa cell lines were purchased from ATCC and maintained in Dulbecco's Modified Eagle Medium (DMEM)—high glucose supplemented with 10% fetal bovine serum (FBS) and antibiotics/antimycotics. Cell line authentication was carried out by Genetica DNA Laboratories (Burlington, NC) using a short tandem repeat (STR) profiling method (March 2015; July 2015; September 2016). Melanoma cells E-055 (MZ-Mel-3), E-097 (Mel-SOE), E-112 (UKRV-Mel-38), E-157 (UKRV-Mel-17) were obtained from the European Searchable Tumour Line Database (ESTDAB) cell bank (a kind gift of Dr. Graham Pawelec, Tubingen University, Germany). MDA-MB-435 was purchased from the Division of Cancer Treatment and Diagnosis Tumor Repository. All melanoma cells were cultured in Roswell Park Memorial Institute (RPMI) medium supplemented with 10% FBS and P/S/antimycotics. Primary human epidermal melanocytes from normal adult abdominal skin were purchased from ATCC (cat # PCS-200–013) and Cell Applications (cat#104-05a). The melanocytes were cultured in the media supplied by the companies.
as §1
(In general: The SRB assay estimates cell density from bound dye.)

In the next assay the test system is MZ-Mel-3. Description: Sulforhodamine B (SRB) assay. The assay is classed as cell-based. Particulars: MZ-Mel-3 melanoma cells, 48 h. On the procedure: as §2, §1
Another assay has as its system MCF7. Briefly: Sulforhodamine B (SRB) assay. It counts as cell-based. Particulars: Homo sapiens; MCF7 breast cancer cells, 48 h, SRB. The method, then:
as §2, §1

The test system of a further assay is UKRV-Mel-17. Description: Sulforhodamine B (SRB) assay. Particulars: UKRV-Mel-17 melanoma cells, 48 h. The assay is classed as cell-based. On the procedure: as §2, §1
The next assay concerns MDA-MB231. Description: Sulforhodamine B (SRB) assay. It counts as cell-based. The conditions noted are these: Homo sapiens, MDA-MB-231; MDA-MB231 breast cancer cells, 48 h, SRB. The method, then:
as §2, §1

Another assay relates to MDA-MB468. Briefly: Sulforhodamine B (SRB) assay. It counts as cell-based. Particulars: Homo sapiens, MDA-MB-468, MDA-MB468 breast cancer cells, 48 h. The method, then: as §2, §1
Another assay has as its system UKRV-Mel-38. Briefly: Sulforhodamine B (SRB) assay. It counts as cell-based. The conditions noted are these: UKRV-Mel-38 melanoma cells, 48 h. On the procedure: as §2, §1
For a further assay, the system named is HeLa. Briefly: Sulforhodamine B (SRB) assay. It counts as cell-based. The conditions noted are these: Homo sapiens; HeLa cervical cancer cells, 48 h, SRB. On the procedure:
as §2, §1

The subject of another assay is Mel-SOE. Briefly: Sulforhodamine B (SRB) assay. The assay is classed as cell-based. The conditions noted are these: Mel-SOE melanoma cells, 48 h. The method, then: as §2, §1
The next assay addresses T1, porcine tubulin (Sus scrofa, UniProt P02550+P02554).
T1 construct: purchased Cytoskeleton Inc., Denver, CO BK011P
Description: In vitro tubulin polymerization assay. The assay is classed as biochemical. The conditions noted are these: 3 µM compound, 20 µM porcine tubulin, 37 °C, 60 min. On the procedure: Spontaneous polymerization of 20 µM porcine tubulin was initiated with the addition of 1 mmol/L GTP at 37 °C and monitored every minute for 60 min in the presence of the indicated concentration of CTR-21, CTR-32, nocodazole, paclitaxel, or a DMSO vehicle control. To make the graph simpler, only 3 µM concentration is shown. […] A modified Dixon plot was used to determine the inhibitory concentration of CTR-21 and CTR-32 (Ki).
Microtubule assembly was assessed using a Tubulin Polymerization assay kit (BK011P; Cytoskeleton Inc., Denver, CO). […] Polymerization was started by incubating at 37 °C and followed by absorbance readings every 1 min at 340 nm for 1 h using a Synergy H4 plate reader.

Experimental findings from paper PMC8566451, “Lead optimization of novel quinolone chalcone compounds by a structure–activity relationship (SAR) study to increase efficacy and metabolic stability” (Scientific Reports, 2021) are described below.

Each structure is given as a SMILES string.

T1 sequence (P02554 whole entry): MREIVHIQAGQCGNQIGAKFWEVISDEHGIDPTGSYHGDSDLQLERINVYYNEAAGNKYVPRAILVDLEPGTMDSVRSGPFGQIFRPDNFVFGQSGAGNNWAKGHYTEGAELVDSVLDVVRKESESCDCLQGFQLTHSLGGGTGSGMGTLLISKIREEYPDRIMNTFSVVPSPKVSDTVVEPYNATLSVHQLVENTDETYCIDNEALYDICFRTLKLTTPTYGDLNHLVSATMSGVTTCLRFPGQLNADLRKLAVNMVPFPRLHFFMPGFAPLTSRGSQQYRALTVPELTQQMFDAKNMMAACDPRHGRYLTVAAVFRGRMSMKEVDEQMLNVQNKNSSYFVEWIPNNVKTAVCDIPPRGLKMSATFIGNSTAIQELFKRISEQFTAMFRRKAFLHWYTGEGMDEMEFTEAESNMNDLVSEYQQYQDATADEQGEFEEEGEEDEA
T1 sequence (P02550 whole entry): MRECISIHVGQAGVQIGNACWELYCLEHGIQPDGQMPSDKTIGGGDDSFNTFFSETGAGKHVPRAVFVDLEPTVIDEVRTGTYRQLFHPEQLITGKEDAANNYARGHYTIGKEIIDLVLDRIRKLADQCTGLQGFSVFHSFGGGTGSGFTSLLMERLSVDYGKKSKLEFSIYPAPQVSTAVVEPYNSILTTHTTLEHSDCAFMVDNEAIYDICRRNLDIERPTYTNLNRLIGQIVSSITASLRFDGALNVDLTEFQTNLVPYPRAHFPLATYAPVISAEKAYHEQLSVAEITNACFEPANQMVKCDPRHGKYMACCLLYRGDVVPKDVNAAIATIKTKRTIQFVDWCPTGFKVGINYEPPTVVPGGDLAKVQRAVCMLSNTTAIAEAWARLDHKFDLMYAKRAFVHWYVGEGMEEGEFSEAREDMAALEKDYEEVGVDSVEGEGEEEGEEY

In the case of `COc1ccc2cc(/C=C/C(=O)c3ccccc3OC)c(=O)[nH]c2c1` [CTR-19, (E)-7-Methoxy-3-(3-(2-methoxyphenyl)-3-oxoprop-1-enyl) quinolin-2(1H)-one], the GI50 (in general, the concentration at which growth is held to half of that of the control) in the assay on MDA-MB231-TaxR was 7090 ± 1060 nM; in [1] (average over the cell lines of Table 1 or Supplemental Table S1, read-out: average GI50) it was 7300 nM; in the assay with MDA-MB435, 4720 ± 2760 nM; in the assay on MZ-Mel-3, 6830 ± 957 nM; in the assay with MCF7 it was 11900 nM; in the assay with UKRV-Mel-17, 11200 nM. For the same compound, the concentration for 50% growth inhibition (GI50) in the assay on MDA-MB231 was 6510 ± 1390 nM; in the assay on MDA-MB468, 3540 ± 60 nM; in the assay with UKRV-Mel-38, 3770 ± 206 nM; with HeLa, 6820 ± 1390 nM; in the assay on Mel-SOE it was 10100 nM. Moreover, in the assay with HeLa cells, the cell cycle effect result is “arrests cells in G2/M, albeit at a much higher concentration”. Moreover, the “potency compared to CTR-17” value in assay [1] is “lower toxicity potency”.

For the compound `COC(=O)Nc1nc2ccc(C(=O)c3cccs3)cc2[nH]1` [Noco, Nocodazole, reference compound], at porcine tubulin, the “effect on tubulin polymerization” value was “reduced steady-state”. In addition, the GI50 in the assay with MDA-MB231-TaxR turned out to be 47 ± 11 nM; with MDA-MB435, 18 ± 2 nM; in the assay with MZ-Mel-3, 23 ± 2 nM; in the assay with MCF7, 33 ± 7 nM; in the assay with UKRV-Mel-17, 39 ± 1 nM; with MDA-MB231, 35 ± 4 nM. Moreover, the 50% growth inhibitory concentration (GI50) came to 48 ± 7 nM in the assay with MDA-MB468, 34 ± 3 nM in the assay with UKRV-Mel-38, 25 ± 1 nM in the assay with HeLa and 51 ± 11 nM in the assay on Mel-SOE.

With `CC(=O)O[C@H]1C(=O)[C@@]2(C)[C@H]([C@H](OC(=O)c3ccccc3)[C@]3(O)C[C@H](OC(=O)[C@H](O)[C@@H](NC(=O)c4ccccc4)c4ccccc4)C(C)=C1C3(C)C)[C@]1(OC(C)=O)CO[C@@H]1C[C@@H]2O` [Tax, paclitaxel, reference compound], the “effect on tubulin polymerization” value at porcine tubulin is “shorter nucleation phase, steeper growth phase, and reaches steady state quicker”. The GI50 with MDA-MB231-TaxR was 131 ± 35 nM; in the assay on MDA-MB435, 4 ± 1 nM; in the assay with MZ-Mel-3, 58 ± 15 nM; with MCF7, 6 ± 1 nM; in the assay with UKRV-Mel-17, 14 ± 4 nM; in the assay on MDA-MB231 it was 3 ± 1 nM. Moreover, the GI50 in the assay with MDA-MB468 amounted to 9 ± 3 nM; in the assay on UKRV-Mel-38, 6 ± 1 nM; with HeLa it was 8 ± 1 nM; with Mel-SOE it was 60 ± 16 nM.
